Results on 4 molecules are retold here after patent US9351955B2, “Compounds and pharmaceutical compositions thereof for the treatment of cystic fibrosis” (Galapagos NV, priority 2013, dated 2016).

What is called pEC50 is −log10 of the EC50, conventionally taken in molar units.

Each structure is given as a SMILES string. pEC50: −log10 of the molar value. Values joined by “and” are separate entries in the source; they are usually repeats but may differ in a detail not shown here. Equal values may be shown once.

The target in assay [1] is T1, CFTR ΔF508 mutant (Homo sapiens, UniProt P13569, DEL508-508).
T1 construct: expressed in transfected cells; host or cells: CFBE41o- (adenoviral transduction)
The experiment in a line: YFP-halide influx assay for the CFTR-ΔF508 mutation (384 well, CFBE41o- cells, FDSS/μCell). It counts as cell-based. Particulars: forskolin 10.67 μM, fluorescence after 36 seconds, read-out: EC50 measured by YFP-halide influx assay for the CFTR-ΔF508. In outline:
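CFBE41o- cells were adenovirally transduced with ΔF508 CFTR and the YFP H148Q/I152L reporter. Cells were then held 24 h at 27 °C or treated 24 h at 37 °C with a CFTR modulator. Iodide-induced quench was recorded for 2 min, and EC50 was derived from 1−F/F0 at 36 s against compound concentration.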

In assay [2] the target is T2, CFTR ΔF508 (Homo sapiens, UniProt P13569, DEL508-508).
T2 construct: host or cells: primary bronchial epithelial cells from CF patients homozygous for ΔF508, pre-treated with VX809
Nature of the assay: TECC assay, primary bronchial epithelial cells from CF patients homozygous for CFTR ΔF508. Particulars: for ΔIsc / Current increase: TECC assay; for Current increase: difference between ΔIsc with compound and ΔIsc DMSO (baseline); for pEC50: primary bronchial epithelial cells, CFTR ΔF508, several values in a cell = repeat determinations. It counts as cell-based. How it is done:
7.2.1. Primary Bronchial Epithelial Cells Protocol
The TECC (Tranepithelial Clamp Circuit, EP-design) assay measures the functionality of the cystic fibrosis Transmembrane Conductance regulator (CFTR) by measuring the short circuit current (ISC) generated over the basolateral and apical membrane of lung epithelial cells. In TECC the transepithelial potential PD and transepithelial resistance (Rt) are measured in an open circuit and transformed to ISC using Ohm's law. 24 wells can be measured simultaneously allowing a higher throughput compared to Ussing chambers.
For this purpose, bronchial epithelial cells isolated from CF patients homozygous for the CFTR ΔF508 mutation (hAEC-CF, Epithelix) are plated on type IV collagen-coated Transwell supports (Costar). Human airway epithelia are generated by provision of an air-liquid interface for 21 days to form well-differentiated polarized cultures that resemble in vivo pseudo-stratified ciliated epithelium (Fulcher et al., 2005). In the case of the homozygous ΔF508 CFTR samples, the differentiated cells are treated with 3 μM VX809 (2626 South Loop West, Suite 225, Houston, Tex. 77054 USA, Cat n#51565) to allow sufficient expression of properly folded CFTR protein on the membrane (48 hours basolateral treatment and 24 hours apical treatment), prior to electrophysiological recordings. […] G551D/ΔF508, differentiated cells are used as such for the recordings.
Information on the compounds can be retrieved on the homozygous ΔF508 CFTR samples looking at increased CFTR activity when compounds are added in an acute mode or in a chronic mode. On G551D/ΔF508 CFTR heterozygous samples compounds are added in an acute mode to the differentiated cells.
For the acute mode, for electrophysiological recording, the human airway epithelia are mounted in the TECC heating plate for electrophysiological measurement and kept at 37° C. The epithelia are bathed in a NaCl-Ringer solution (120 mM NaCl, 25 mM NaHCO3, 1.2 mM CaCl2, 1.2 mM MgCl2, 0.8 mM KH2PO4, 0.8 mM K2HPO4, pH 7.4, 5 mM glucose) on both the basolateral and apical sides. Apical amiloride is used to inhibit the endogenous ENaC currents while forkolin is applied on both apical and basolateral side to stimulate CFTR. After forskolin triggering, compounds are added on both sides to test their potential for increasing CFTR gating. Measurements are done during a 20 minute timeframe with recordings every 2 minutes. The increase in ISC is used as a measure for the increased CFTR activity, EC50 values can be generated by measuring impact of different concentrations of compound on ISC on primary cells, for this purpose each transwell is treated with a different compound concentration. Inh-172, an inhibitor specific for CFTR, is used to test the specificity of the tested compounds.
For the chronic mode, the differentiated cells are treated with 3 μM VX809 (2626 South Loop West, Suite 225, Houston, Tex. 77054 USA, Cat n#51565) and potentiator compounds at different concentrations (48 hours basolateral treatment and 24 hours apical treatment), prior to electrophysiological recordings. For electrophysiological recording, the human airway epithelia are mounted in the TECC heating plate for electrophysiological measurement and kept at 37° C. […]

T2 sequence (P13569 with tags, fused parts or gaps DEL508-508): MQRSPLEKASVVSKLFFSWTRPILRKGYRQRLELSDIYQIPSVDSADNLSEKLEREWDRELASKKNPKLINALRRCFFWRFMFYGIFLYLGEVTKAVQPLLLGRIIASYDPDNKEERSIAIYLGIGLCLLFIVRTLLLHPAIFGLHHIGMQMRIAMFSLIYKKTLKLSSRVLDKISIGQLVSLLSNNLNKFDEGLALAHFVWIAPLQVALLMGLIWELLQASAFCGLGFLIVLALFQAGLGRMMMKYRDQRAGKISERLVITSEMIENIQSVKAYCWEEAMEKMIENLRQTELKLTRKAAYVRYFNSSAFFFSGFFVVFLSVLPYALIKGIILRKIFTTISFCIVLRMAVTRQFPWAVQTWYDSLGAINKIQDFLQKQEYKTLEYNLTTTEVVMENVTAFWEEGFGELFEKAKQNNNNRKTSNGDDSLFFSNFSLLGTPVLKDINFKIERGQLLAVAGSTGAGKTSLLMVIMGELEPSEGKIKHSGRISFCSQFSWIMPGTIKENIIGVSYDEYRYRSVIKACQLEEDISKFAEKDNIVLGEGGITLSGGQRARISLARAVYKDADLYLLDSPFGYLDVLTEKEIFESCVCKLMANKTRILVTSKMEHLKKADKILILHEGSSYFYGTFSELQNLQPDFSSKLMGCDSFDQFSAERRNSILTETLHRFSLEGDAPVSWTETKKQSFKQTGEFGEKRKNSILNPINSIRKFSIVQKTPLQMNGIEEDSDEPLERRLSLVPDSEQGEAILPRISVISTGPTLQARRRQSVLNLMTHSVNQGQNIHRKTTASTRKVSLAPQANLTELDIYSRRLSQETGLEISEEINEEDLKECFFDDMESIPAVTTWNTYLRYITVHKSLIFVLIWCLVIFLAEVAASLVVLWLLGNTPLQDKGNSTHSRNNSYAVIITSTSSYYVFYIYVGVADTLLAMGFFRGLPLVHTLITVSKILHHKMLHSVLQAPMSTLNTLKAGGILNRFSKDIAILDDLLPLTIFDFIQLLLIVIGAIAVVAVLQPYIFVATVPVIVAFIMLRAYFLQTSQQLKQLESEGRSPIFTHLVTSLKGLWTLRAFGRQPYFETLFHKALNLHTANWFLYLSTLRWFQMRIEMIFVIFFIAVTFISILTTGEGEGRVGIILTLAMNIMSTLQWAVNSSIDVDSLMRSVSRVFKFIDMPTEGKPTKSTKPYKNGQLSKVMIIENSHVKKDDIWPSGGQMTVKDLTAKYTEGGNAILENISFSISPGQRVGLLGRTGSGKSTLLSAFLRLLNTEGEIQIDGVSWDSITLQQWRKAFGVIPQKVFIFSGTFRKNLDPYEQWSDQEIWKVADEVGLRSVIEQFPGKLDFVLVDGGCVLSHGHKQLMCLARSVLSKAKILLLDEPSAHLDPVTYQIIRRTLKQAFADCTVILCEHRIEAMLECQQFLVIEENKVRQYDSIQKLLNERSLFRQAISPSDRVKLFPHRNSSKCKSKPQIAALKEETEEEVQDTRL
T1 sequence (P13569 with tags, fused parts or gaps DEL508-508): as above

On to `CC1(C)Cc2c(sc(NC(=O)c3ccn[nH]3)c2C(N)=O)C(C)(C)O1` [Compound 2, N-(3-carbamoyl-5,5,7,7-tetramethyl-5,7-dihydro-4H-thieno[2,3-c]pyran-2-yl)-1H-pyrazole-5-carboxamide], for which the values for the pEC50 in assay [1] and in assay [2] were 8.47 and 7.43, respectively. For the same molecule, the ΔIsc in assay [2] (compound at 50 nM (Table XV)) worked out at 4.5996 μA/cm^2; in assay [2] (compound at 50 nM (Table XVI)), 4.5996 μA/cm^2; in assay [2] (compound at 100 nM (Table XVI)) it was 4.9327 μA/cm^2; in assay [2] (compound at 200 nM (Table XVI)) it was 5.0457 μA/cm^2; in assay [2] (compound at 3 μM), 10.9207 μA/cm^2. Moreover, the results for the Current increase in assay [2] (compound at 50 nM) and in assay [2] (compound at 3 μM) were 4.9244 μA/cm^2 and 11.6634 μA/cm^2, respectively. In addition, the “activity on the CFTR protein in TECC assay (ΔISC vs DMSO baseline)” value in assay [2] (at 3 μM, or 50 nM, or 50/100/200 nM) was “shows an activity”.
Consider `CC1(C)Cc2c(sc(NC(=O)C3(CO)CC3)c2C(N)=O)C(C)(C)O1` [Compound 9, 2-(1-(hydroxymethyl)cyclopropanecarboxamido)-5,5,7,7-tetramethyl-5,7-dihydro-4H-thieno[2,3-c]pyran-3-carboxamide], for which the negative-log EC50 (pEC50) in assay [1] was 7.82; in assay [2], 6.63 and 7.19.
For the molecule `CC1(C)Cc2c(sc(NC(=O)C(C)(C)CO)c2C(N)=O)C(C)(C)O1` [Compound 10, 2-(3-hydroxy-2,2-dimethylpropanamido)-5,5,7,7-tetramethyl-5,7-dihydro-4H-thieno[2,3-c]pyran-3-carboxamide], the negative logarithm of the EC50 (pEC50) in assay [1] is 7.13. Also, in assay [2] (compound at 3 μM), the ΔIsc was 3.9356 μA/cm^2 and the Current increase amounted to 4.4567 μA/cm^2.
For `CC1(C)Cc2c(sc(NC(=O)C3(O)CC3)c2C(N)=O)C(C)(C)O1` [Compound 4, 2-(1-hydroxycyclopropanecarboxamido)-5,5,7,7-tetramethyl-5,7-dihydro-4H-thieno[2,3-c]pyran-3-carboxamide] the same measures were 7.65, 4.6728 μA/cm^2 and 5.1939 μA/cm^2.
